Values of other authors in US20060257347A1, “Self-preservation system” (priority 2005, published 2006).
Values after ≈ are worked out from the molar mass of the structure shown.

Columns and labels:
Details in all cases: hinokitiol alone; known to be
[1] = system: Escherichia coli (ATCC No. 8739)
[2] = system: Pseudomonas aeruginosa (ATCC No. 9027)
[3] = system: Staphylococcus aureus (ATCC No. 6538)
[4] = system: Candida albicans (ATCC No. 10231)
[5] = system: Aspergillus niger (ATCC No. 16404)

MIC (Minimum Inhibitory Concentration) Escherichia coli [1]: 40.0 mg/mL (≈ 244 mM)
MIC (Minimum Inhibitory Concentration) Pseudomonas aeruginosa [2]: 50.0 mg/mL (≈ 304 mM)
MIC (Minimum Inhibitory Concentration) Staphylococcus aureus [3]: 40.0 mg/mL (≈ 244 mM)
MIC (Minimum Inhibitory Concentration) Candida albicans [4]: 12.5 mg/mL (≈ 76.1 mM)
MIC (Minimum Inhibitory Concentration) Aspergillus niger [5]: 40.0 mg/mL (≈ 244 mM)
SMILES: CC(C)c1cccc(=O)c(O)c1 [hinokitiol, Hinokitiol]
